Experimental data from DBAASP.
Values after ≈ are worked out from the molar mass of the structure shown. One block for each compound: values may come before it.

Key:
Assay in all cases: ≥ marks a high value that may be exact or a test limit, other limits are often not marked, values filed in µg/mL are converted to µM
[1] = system: Streptococcus sobrinus ATCC 33478
Escherichia coli W3110 = system: Escherichia coli W3110
Enterococcus faecalis = system: Enterococcus faecalis
[2] = system: Pseudomonas aeruginosa PAK
[3] = system: Streptococcus sanguinis NY101
Staphylococcus aureus = system: Staphylococcus aureus
[4] = system: Streptococcus mutans UA159
[5] = system: Klebsiella pneumoniae K6 ATCC 700603
Escherichia coli DC2 = system: Escherichia coli DC2
[6] = system: Klebsiella pneumoniae 123132
[7] = system: Salmonella enterica subsp. enterica serovar Typhimurium ATCC 700408
Escherichia coli BL21AI = system: Escherichia coli BL21AI
[8] = system: Escherichia coli DSM 1103
[9] = system: Agrobacterium tumefaciens ATCC 15955
[10] = system: Klebsiella pneumoniae DSM 681
Escherichia coli 45849 = system: Escherichia coli 45849
Escherichia coli D31 = system: Escherichia coli D31
[11] = system: Salmonella enterica subsp. enterica serovar Typhi S5
[12] = system: Micrococcus luteus ATCC 10240
[13] = system: Staphylococcus aureus ATCC 25923
[14] = system: Stenotrophomonas maltophilia ATCC 13637
[15] = system: Staphylococcus epidermidis
[16] = system: Escherichia coli ATCC 25922
[17] = system: Pseudomonas aeruginosa ATCC 27853
Streptococcus pyogenes = system: Streptococcus pyogenes
[18] = system: Bacillus subtilis ATCC 6633
[19] = system: Candida albicans ATCC 90112
Proteus mirabilis = system: Proteus mirabilis
[20] = system: Proteus vulgaris OX19 ATCC 6380
Bacillus megaterium Bm11 = system: Bacillus megaterium Bm11
[21] = system: Staphylococcus aureus JC-1
[22] = system: Shigella flexneri ATCC 203
[23] = system: Pseudomonas aeruginosa OT97
Escherichia coli D21 = system: Escherichia coli D21
Micrococcus luteus Ml11 = system: Micrococcus luteus Ml11
Escherichia coli HB101 = system: Escherichia coli HB101
[24] = system: Vibrio anguillarum FT1801
[25] = system: Corynebacterium glutamicum ATCC 13032
[26] = system: Staphylococcus aureus ATCC 9144

MIC [1]: ≥ 101 µM
MIC (Escherichia coli W3110): ≥ 50.6 µM
MIC (Enterococcus faecalis): 25.3 µM (≈ 62.5 µg/mL)
MIC [2]: ≥ 50.6 µM
MIC [3]: 25.3 µM (≈ 62.5 µg/mL)
MIC (Staphylococcus aureus): 50.6 µM (≈ 125 µg/mL)
MIC [4]: 6.48 µM (≈ 16 µg/mL)
Compound: CC[C@H](C)[C@H](NC(=O)[C@H](Cc1ccccc1)NC(=O)[C@H](Cc1cnc[nH]1)NC(=O)[C@H](CCCCN)NC(=O)[C@@H](NC(=O)[C@H](Cc1ccccc1)NC(=O)[C@@H](NC(=O)[C@H](C)NC(=O)[C@H](CO)NC(=O)[C@H](Cc1ccccc1)NC(=O)[C@H](Cc1cnc[nH]1)NC(=O)[C@H](CC(C)C)NC(=O)[C@H](Cc1cnc[nH]1)NC(=O)[C@H](Cc1ccccc1)NC(=O)[C@H](Cc1cnc[nH]1)NC(=O)[C@@H](N)Cc1ccccc1)[C@@H](C)O)[C@@H](C)CC)C(=O)N[C@@H](Cc1cnc[nH]1)C(=O)N[C@@H](CCCN=C(N)N)C(=O)N[C@@H](Cc1ccccc1)C(N)=O [FHFHLHFSATFIKHFIHRF]

MIC [5]: ≥ 60.7 µM
MIC (Escherichia coli DC2): 3.7 µM (≈ 7.81 µg/mL)
MIC [6]: 15.2 µM (≈ 32 µg/mL)
MIC [7]: 1.9 µM (≈ 4 µg/mL)
MIC (Escherichia coli BL21AI): 1.85 µM (≈ 3.91 µg/mL)
MIC [8]: 1.85 µM (≈ 3.91 µg/mL)
MIC [9]: 1.23 µM (≈ 2.6 µg/mL)
MIC [10]: 7.41 µM (≈ 15.6 µg/mL)
MIC (Escherichia coli 45849): 7.59 µM (≈ 16 µg/mL)
MIC (Escherichia coli D31): ≥ 60.7 µM
MIC [11]: 15.2 µM (≈ 32 µg/mL)
MIC [12]: 0.925 µM (≈ 1.95 µg/mL)
Compound: CC[C@H](C)[C@H](NC(=O)[C@H](CCCN=C(N)N)NC(=O)[C@@H]1CCCN1C(=O)[C@H](Cc1cnc[nH]1)NC(=O)[C@@H]1CCCN1C(=O)[C@@H]1CCCN1C(=O)[C@H](CCCN=C(N)N)NC(=O)[C@@H]1CCCN1C(=O)[C@H](CCC(N)=O)NC(=O)[C@@H]1CCCN1C(=O)[C@H](CC(C)C)NC(=O)[C@H](Cc1ccc(O)cc1)NC(=O)[C@@H](NC(=O)[C@@H]1CCCN1C(=O)[C@H](CCCN=C(N)N)NC(=O)[C@H](CC(N)=O)NC(=O)[C@H](CC(N)=O)NC(=O)CN)C(C)C)C(N)=O [GNNRPVYLPQPRPPHPRI]

MIC [13]: > 60 µM
MIC [14]: 15 µM (≈ 24.7 µg/mL)
MIC [15]: 30 µM (≈ 49.4 µg/mL)
MIC [16]: 30 µM (≈ 49.4 µg/mL)
MIC [17]: 30 µM (≈ 49.4 µg/mL)
MIC (Streptococcus pyogenes): 30 µM (≈ 49.4 µg/mL)
MIC [18]: 30 µM (≈ 49.4 µg/mL)
MIC [19]: 7.5 µM (≈ 12.3 µg/mL)
MIC (Proteus mirabilis): ≥ 60 µM
MIC [12]: 30 µM (≈ 49.4 µg/mL)
Compound: CC(C)C[C@H](NC(=O)CNC(=O)[C@H](CCCCN)NC(=O)[C@H](CC(C)C)NC(=O)[C@H](CC(N)=O)NC(=O)[C@@H](N)CC(C)C)C(=O)N[C@@H](Cc1ccccc1)C(=O)N[C@@H](CCCCN)C(=O)N[C@@H](CCCCN)C(=O)N[C@H](C(=O)N[C@@H](C)C(=O)N[C@@H](CO)C(=O)N[C@@H](CC(C)C)C(=O)N[C@@H](CC(C)C)C(=O)N[C@H](C(=O)O)[C@@H](C)O)C(C)C [LNLKGLFKKVASLLT]

MIC [20]: 4.24 µM (≈ 7.8 µg/mL)
MIC (Bacillus megaterium Bm11): 1.03 µM (≈ 1.9 µg/mL)
MIC [21]: 4.24 µM (≈ 7.8 µg/mL)
MIC [22]: 0.533 µM (≈ 0.98 µg/mL)
MIC [18]: 1.06 µM (≈ 1.95 µg/mL)
MIC [23]: 4.24 µM (≈ 7.8 µg/mL)
MIC (Escherichia coli D21): 2.12 µM (≈ 3.9 µg/mL)
MIC (Micrococcus luteus Ml11): 5.44 µM (≈ 9.99 µg/mL)
Compound: CC[C@H](C)[C@H](NC(=O)[C@@H]1CCCN1C(=O)[C@H](CCCN=C(N)N)NC(=O)[C@@H]1CCCN1C(=O)[C@H](CCCN=C(N)N)NC(=O)[C@H](Cc1ccc(O)cc1)NC(=O)[C@H](CC(N)=O)NC(=O)[C@@H]1CCCN1C(=O)[C@H](CCCN=C(N)N)NC(=O)[C@@H]1CCCN1C(=O)[C@@H](N)CCCN=C(N)N)C(=O)N[C@@H](Cc1ccc(O)cc1)C(=O)N[C@@H](CCCN=C(N)N)C(=O)N1CCC[C@H]1C(N)=O [RPRPNYRPRPIYRP]

MIC (Escherichia coli HB101): 6.25 µM (≈ 27.2 µg/mL)
MIC [24]: 6.3 µM (≈ 27.4 µg/mL)
MIC [25]: 0.8 µM (≈ 3.48 µg/mL)
MIC [26]: ≥ 50 µM
MIC [16]: 12.5 µM (≈ 54.3 µg/mL)
MIC [17]: 6.3 µM (≈ 27.4 µg/mL)
Compound: CC[C@H](C)[C@H](NC(=O)[C@@H]1CCCN1C(=O)[C@H](CCCCN)NC(=O)[C@@H]1CCCN1C(=O)[C@H](CCCN=C(N)N)NC(=O)CNC(=O)[C@@H]1CCCN1C(=O)[C@H](Cc1ccccc1)NC(=O)[C@@H]1CCCN1C(=O)[C@H](CCCN=C(N)N)NC(=O)[C@@H]1CCCN1C(=O)[C@H](CCCN=C(N)N)NC(=O)CNC(=O)[C@@H]1CCCN1C(=O)[C@H](CO)NC(=O)[C@@H]1CCCN1C(=O)[C@H](Cc1c[nH]c2ccccc12)NC(=O)[C@H](CCCN=C(N)N)NC(=O)[C@@H](N)CO)C(=O)N[C@@H](Cc1ccccc1)C(=O)N[C@@H](CCCN=C(N)N)C(=O)N1CCC[C@H]1C(=O)N[C@@H](CCCN=C(N)N)C(=O)N1CCC[C@H]1C(=O)N[C@H]1CSSC[C@@H](C(=O)N[C@@H](CC(=O)O)C(=O)N[C@@H](CCCN=C(N)N)C(=O)N[C@@H](Cc2c[nH]c3ccccc23)C(=O)O)NC(=O)[C@@H]2CCCN2C(=O)[C@@H]2CSSC[C@H](NC(=O)[C@H](CC(N)=O)NC1=O)C(=O)N[C@@H](Cc1ccc(O)cc1)C(=O)N[C@@H](C)C(=O)N1CCC[C@H]1C(=O)N1CCC[C@H]1C(=O)N2 [SRWPSPGRPRPFPGRPKPIFRPRPCNCYAPPCPCDRW]
